# Experimental data reported in ChEMBL document CHEMBL1201862, “PubChem BioAssay data set” (2004).
# Active and inactive are the calls of the source.
# Columns and labels:
# Beta-galactosidase = Beta-galactosidase (Escherichia coli, UniProt Q8VNN2); experiment: Dose response counterscreen for EBI2 assay utilizing the enzyme, b-galactosidase.; assay type: functional
# [1] = molecular target: Benomyl/methotrexate resistance protein (Candida albicans, UniProt P28873); experiment: Candida albicans Mdr1 pump inhibition curves – singleplex, Cherry Pick1 hits, dose response (AID 588608); assay type: functional
# [2] = molecular target: Multidrug resistance protein CDR2 (Candida albicans (strain SC5314 / ATCC MYA-2876) (Yeast), UniProt P78595); experiment: inhibition of Nile Red efflux via Candida CDR2 – S. cerevisiae AD1-8u, singleplex, Cherry Pick1 hits, dose response (AID 588604); assay type: functional
# [3] = molecular target: Multidrug resistance protein CDR1 (Candida albicans, UniProt P43071); experiment: inhibition of Nile Red efflux via Candida CDR1 – S. cerevisiae AD1-8u, singleplex, Cherry Pick1 hits, dose response (AID 588606); assay type: functional
# [4] = molecular target: Serine/threonine-protein kinase MRCK alpha (Homo sapiens, UniProt Q5VT25); assay type: functional
# [5] = molecular target: Receptor-type tyrosine-protein kinase FLT3 (Homo sapiens, UniProt P36888); assay type: functional;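 note: FLT3 was tested as one member of a kinome-wide kinase panel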
# Aurora kinase B = Aurora kinase B (Homo sapiens, UniProt Q96GD4); assay type: functional
# [6] = molecular target: Serine/threonine-protein kinase pim-1 (Homo sapiens, UniProt P11309); assay type: functional
# [7] = molecular target: Serine/threonine-protein kinase DCLK1 (Homo sapiens, UniProt O15075); assay type: functional;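 note: affinity for DCLK1 (listed as DCAMKL1) measured as one member of a kinome-wide kinase profiling panel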
# [8] = molecular target: Serine/threonine-protein kinase pim-3 (Homo sapiens, UniProt Q86V86); assay type: functional;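 note: value obtained as one member of a broad kinase panel profiling effort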
# [9] = molecular target: MAP kinase-interacting serine/threonine-protein kinase 2 (Homo sapiens, UniProt Q9HBH9); assay type: functional
# [10] = molecular target: Interleukin-1 receptor-associated kinase 4 (Homo sapiens, UniProt Q9NWZ3); assay type: functional
# [11] = molecular target: RAC-gamma serine/threonine-protein kinase (Homo sapiens, UniProt Q9Y243); assay type: functional
# LIM domain kinase 1 = LIM domain kinase 1 (Homo sapiens, UniProt P53667); experiment: Navigating the Kinome. Panel member name: LIMK1; assay type: functional
# [12] = molecular target: Serine/threonine-protein kinase PAK 1 (Homo sapiens, UniProt Q13153); assay type: functional
# [13] = molecular target: Serine/threonine-protein kinase BRSK1 (Homo sapiens, UniProt Q8TDC3); assay type: functional;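 note: measured within a kinome-wide kinase panel, with the target listed as KIAA1811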
# [14] = OVCAR4 cell viability loss – plate reader, dry powder, SA11, cytotoxicity control for PAX8 inhibitor project, dose response (AID 743150); assay type: functional, cell-based; settings: OVCAR-4
# [15] = IGROV1 cell killing – plate reader, dry powder samples, PAX8 inhibitor project, dose response (AID 743043); assay type: functional, cell-based; settings: IGROV-1
# Paired box protein Pax-8 = Paired box protein Pax-8 (Homo sapiens, UniProt Q06710); experiment: PAX8 transcriptional activity inhibition in RMG-I – RMG-I cells, luciferase, cherry-pick, dose response (AID 687027); assay type: functional, cell-based;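 note: luciferase reporter driven by Pax8 target thyroperoxidase promoter measured by SteadyGlo luminescence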
# [16] = DRD fibroblast viability loss – cell-based, non-viral oncogenic, luminescence, dose response (AID 1934); assay type: functional; settings: Homo sapiens
# [17] = molecular target: Protein disulfide-isomerase (Homo sapiens, UniProt P07237); experiment: inhibition of PDI-driven insulin aggregation – biochemical, turbidity, absorbance, cherry-picked samples, dose response (AID 602350); assay type: functional
# BJ [18] = experiment: cells; assay type: functional, cell-based; settings: Homo sapiens
# BJ [19] = experiment: growth inhibition of engineered Ras-driven BJ cells – cell-based, alamar blue fluorescence, cherrypicked samples, dose response (AID 2631); assay type: functional; settings: Homo sapiens;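 note: confirmatory dose-response assay in RAS-dependent BJ fibroblasts engineered with TERT, LT and ST, with cytotoxicity read by fluorescence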
# [20] = COV362 cell viability loss – plate reader, dry powder, SA12, cytotoxicity control for PAX8 inhibitor project, dose response (AID 743144); assay type: functional, cell-based
# [21] = inhibitors acting on PAX2 in cells – cell-based, plate reader, dry powder samples, selectivity assay for PAX8 inhibitor project, dose response (AID 743048); assay type: functional;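 note: HEK293 cells carrying a WT1 promoter luciferase reporter driven by expressed Pax2; potency is for inhibition of Pax2 driven reporter signal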
# [22] = OV-90 cell viability loss – plate reader, dry powder, SA8, PAX8 inhibitor project, dose response (AID 743149); assay type: functional, cell-based
# Vero [23] = experiment: cells; assay type: functional; settings: Chlorocebus sabaeus
# [24] = molecular target: T1, Heat shock factor protein 1 (Mus musculus, UniProt P38532); experiment: enhancement of HSF1-driven luciferase signal – cell-based, NIH3T3, luminescence, dose retest, confirmation (AID 435004); assay type: functional;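 note: stress induced by proteasome inhibitor MG132 added 30 min after compound; luciferase reporter driven by HSF1 response element in NIH3T3 cells; actives raise luminescence as potentiators of the MG132 stress response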
# T1 sequence (P38532 whole entry): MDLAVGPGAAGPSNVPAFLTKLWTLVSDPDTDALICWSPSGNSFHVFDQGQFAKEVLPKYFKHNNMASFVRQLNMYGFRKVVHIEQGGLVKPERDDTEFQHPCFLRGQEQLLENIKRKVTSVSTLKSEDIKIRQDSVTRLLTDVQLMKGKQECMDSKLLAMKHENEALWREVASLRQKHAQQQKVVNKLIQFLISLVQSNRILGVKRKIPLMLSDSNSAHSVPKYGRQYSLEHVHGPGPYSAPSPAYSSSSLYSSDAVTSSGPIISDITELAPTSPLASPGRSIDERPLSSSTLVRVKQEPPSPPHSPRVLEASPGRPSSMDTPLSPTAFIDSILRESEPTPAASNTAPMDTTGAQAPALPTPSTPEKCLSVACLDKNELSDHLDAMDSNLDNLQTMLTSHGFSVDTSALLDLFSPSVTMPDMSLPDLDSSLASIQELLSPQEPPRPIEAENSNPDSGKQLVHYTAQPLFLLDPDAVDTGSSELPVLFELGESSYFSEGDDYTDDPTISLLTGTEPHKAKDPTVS
# [25] = PAX5 cellular inhibition readout – cell-based, plate reader, dry powder samples, selectivity assay for PAX8 inhibitor project, dose response (AID 743047); assay type: functional;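 note: HEK293 cells carrying a Pax5 driven CD19 promoter luciferase reporter; potency of inhibitors that lower reporter luminescence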
# [26] = toxicity toward immortalized ovarian surface epithelium – cell-based, plate reader, dry powder samples, cytotoxicity control for PAX8 inhibitor project, dose response (AID 743045); assay type: functional
# [27] = COV434 cell viability loss – plate reader, dry powder, SA7, cytotoxicity control for PAX8 inhibitor project, dose response (AID 743145); assay type: functional, cell-based
# [28] = luciferase reporter signal suppression in cells – H4 neuroglioma cells, luminescence, dose response (AID 1990); assay type: functional, cell-based
# [29] = viability loss in HEK293T cells – cell-based, cherry-picks, cytotoxicity control for HIV Vif inhibitor project, dose response (AID 652208); assay type: functional
# [30] = PAX8-dependent cell viability loss – plate reader, dry powder, dose response (AID 743049); assay type: functional, cell-based
# Vero [31] = experiment: cells; assay type: functional, cell-based; settings: Chlorocebus sabaeus
# [32] = A2780 cell killing – plate reader, dry powder samples, cytotoxicity control, dose response (AID 743046); assay type: functional, cell-based
# [33] = Fluorescence-based cell-based high throughput dose response assay for inhibitors of the interaction of nucleotide-binding oligomerization domain containing 2 (NOD2) and the receptor-interacting serine-threonine kinase 2 (RIPK2).; assay type: functional; settings: Homo sapiens
# [34] = alpha-synuclein stem-loop luciferase translation blockers – H4 neuroglioma cells, luminescence, confirmation (AID 1988); assay type: functional, cell-based
# [35] = OVCAR-3 cell viability loss – plate reader, dry powder samples, PAX8 inhibitor project, dose response (AID 743044); assay type: functional, cell-based
# INS1 = experiment: INS-1E survival protection against cytokine death – cell-based, luminescence, retest, dose response (AID 449756); assay type: functional; settings: Rattus norvegicus, INS1;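 note: cell death triggered by IL-1 beta plus TNF-alpha plus IFN-gamma mixture; protective hits raise ATP signal compared with cytokine alone wells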
# [36] = Luminescence Cell-Based Dose Response HTS to Identify Inhibitors of 5'UTR Stem-Loop Driven Prion Protein mRNA Translation in H4 Neuroglioblastoma Cells. [Related pubchem assays: 1827 (Project Summary), 1813 (Primary HTS)]; assay type: functional
# BJ [37] = experiment: BJ-TERT fibroblast viability loss – cell-based, RAS-independent, luminescence, dose response (AID 1933); assay type: functional; settings: Homo sapiens
# BJ [38] = experiment: BJ-TERT-LT-ST fibroblast viability loss – cell-based, RAS-independent, luminescence, dose response (AID 1935); assay type: functional; settings: Homo sapiens;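 note: BJ fibroblasts immortalized with TERT plus LT and ST oncogenes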
# [39] = molecular target: Dual specificity tyrosine-phosphorylation-regulated kinase 1A (Homo sapiens, UniProt Q13627); assay type: functional;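 note: measured against DYRK1A as one member of a broad kinome profiling panel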
# [40] = molecular target: Cyclin-dependent kinase 5 (Homo sapiens, UniProt Q00535); assay type: functional;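 note: CDK5 measured as one member of a kinase profiling panel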
# [41] = molecular target: Leukocyte tyrosine kinase receptor (Homo sapiens, UniProt P29376); experiment: Navigating the Kinome. Panel member name: LTK; assay type: functional
# [42] = molecular target: Tyrosine-protein kinase receptor TYRO3 (Homo sapiens, UniProt Q06418); assay type: functional;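 note: TYRO3 value obtained as one member of a kinome-wide profiling panel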
# [43] = molecular target: Cyclin-dependent kinase 9 (Homo sapiens, UniProt P50750); assay type: functional;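 note: value from the CDK9 entry of a kinome-spanning kinase panel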
# [44] = molecular target: Dual specificity tyrosine-phosphorylation-regulated kinase 1B (Homo sapiens, UniProt Q9Y463); experiment: Navigating the Kinome. Panel member name: DYRK1B; assay type: functional
# Aurora kinase A = Aurora kinase A (Homo sapiens, UniProt O14965); assay type: functional;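 note: value from the Navigating the Kinome kinase panel profiling, panel entry STK6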
# [45] = molecular target: Dual specificity protein kinase CLK4 (Homo sapiens, UniProt Q9HAZ1); assay type: functional
# [46] = molecular target: Serine/threonine-protein kinase Nek2 (Homo sapiens, UniProt P51955); assay type: functional
# Activin receptor type-1 = Activin receptor type-1 (Homo sapiens, UniProt Q04771); experiment: Navigating the Kinome. Panel member name: ACVR1; assay type: functional
# [47] = molecular target: Platelet-derived growth factor receptor alpha (Homo sapiens, UniProt P16234); experiment: Navigating the Kinome. Panel member name: PDGFRA; assay type: functional
# [48] = molecular target: cAMP-dependent protein kinase catalytic subunit PRKX (Homo sapiens, UniProt P51817); assay type: functional
# [49] = molecular target: Serine/threonine-protein kinase TBK1 (Homo sapiens, UniProt Q9UHD2); experiment: Navigating the Kinome. Panel member name: TBK1; assay type: functional
# [50] = molecular target: Inhibitor of nuclear factor kappa-B kinase subunit epsilon (Homo sapiens, UniProt Q14164); experiment: Navigating the Kinome. Panel member name: IKBKE; assay type: functional
# [51] = molecular target: Leucine-rich repeat serine/threonine-protein kinase 2 (Homo sapiens, UniProt Q5S007); assay type: functional;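 note: value from a broad kinome-wide panel profiling study in which LRRK2 was one of the kinases tested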
# [52] = molecular target: Death-associated protein kinase 3 (Homo sapiens, UniProt O43293); assay type: functional;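 note: measured as one member of a kinome-wide profiling panel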
# [53] = molecular target: Cyclin-dependent kinase 8 (Homo sapiens, UniProt P49336); experiment: Navigating the Kinome. Panel member name: CDK8; assay type: functional
# [54] = molecular target: 5'-AMP-activated protein kinase catalytic subunit alpha-1 (Homo sapiens, UniProt Q13131); assay type: functional
# LIM domain kinase 1, sequence (P53667 whole entry, the tested form may be a part): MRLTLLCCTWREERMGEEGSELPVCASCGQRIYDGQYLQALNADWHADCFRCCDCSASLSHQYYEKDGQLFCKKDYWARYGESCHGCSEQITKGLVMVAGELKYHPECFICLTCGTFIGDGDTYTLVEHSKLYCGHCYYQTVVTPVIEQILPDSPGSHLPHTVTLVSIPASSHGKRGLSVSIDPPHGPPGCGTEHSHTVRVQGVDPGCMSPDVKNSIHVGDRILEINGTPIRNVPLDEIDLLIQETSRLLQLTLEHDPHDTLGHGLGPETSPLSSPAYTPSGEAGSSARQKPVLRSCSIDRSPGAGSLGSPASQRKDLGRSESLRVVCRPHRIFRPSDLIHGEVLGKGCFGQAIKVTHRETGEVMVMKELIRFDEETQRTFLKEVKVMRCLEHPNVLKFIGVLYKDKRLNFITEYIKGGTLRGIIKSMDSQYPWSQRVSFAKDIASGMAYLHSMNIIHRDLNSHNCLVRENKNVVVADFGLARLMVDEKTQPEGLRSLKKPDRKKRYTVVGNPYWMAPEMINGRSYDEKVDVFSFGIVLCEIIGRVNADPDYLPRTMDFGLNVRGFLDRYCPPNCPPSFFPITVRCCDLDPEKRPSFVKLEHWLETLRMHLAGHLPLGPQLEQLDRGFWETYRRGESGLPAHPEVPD
# Death-associated protein kinase 3, sequence (O43293 whole entry): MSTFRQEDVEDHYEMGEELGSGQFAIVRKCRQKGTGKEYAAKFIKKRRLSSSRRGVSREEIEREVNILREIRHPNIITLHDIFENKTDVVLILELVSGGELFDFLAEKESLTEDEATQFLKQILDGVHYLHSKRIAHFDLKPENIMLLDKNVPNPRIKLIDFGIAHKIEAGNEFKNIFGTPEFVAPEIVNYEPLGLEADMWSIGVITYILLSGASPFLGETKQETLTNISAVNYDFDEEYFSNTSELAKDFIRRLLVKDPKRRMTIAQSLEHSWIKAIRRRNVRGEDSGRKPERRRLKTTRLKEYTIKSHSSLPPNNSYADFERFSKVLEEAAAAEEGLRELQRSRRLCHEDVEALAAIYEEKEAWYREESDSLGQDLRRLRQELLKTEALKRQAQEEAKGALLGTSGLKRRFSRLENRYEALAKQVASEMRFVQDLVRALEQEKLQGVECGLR
# Multidrug resistance protein CDR1, sequence (P43071 whole entry, looked up): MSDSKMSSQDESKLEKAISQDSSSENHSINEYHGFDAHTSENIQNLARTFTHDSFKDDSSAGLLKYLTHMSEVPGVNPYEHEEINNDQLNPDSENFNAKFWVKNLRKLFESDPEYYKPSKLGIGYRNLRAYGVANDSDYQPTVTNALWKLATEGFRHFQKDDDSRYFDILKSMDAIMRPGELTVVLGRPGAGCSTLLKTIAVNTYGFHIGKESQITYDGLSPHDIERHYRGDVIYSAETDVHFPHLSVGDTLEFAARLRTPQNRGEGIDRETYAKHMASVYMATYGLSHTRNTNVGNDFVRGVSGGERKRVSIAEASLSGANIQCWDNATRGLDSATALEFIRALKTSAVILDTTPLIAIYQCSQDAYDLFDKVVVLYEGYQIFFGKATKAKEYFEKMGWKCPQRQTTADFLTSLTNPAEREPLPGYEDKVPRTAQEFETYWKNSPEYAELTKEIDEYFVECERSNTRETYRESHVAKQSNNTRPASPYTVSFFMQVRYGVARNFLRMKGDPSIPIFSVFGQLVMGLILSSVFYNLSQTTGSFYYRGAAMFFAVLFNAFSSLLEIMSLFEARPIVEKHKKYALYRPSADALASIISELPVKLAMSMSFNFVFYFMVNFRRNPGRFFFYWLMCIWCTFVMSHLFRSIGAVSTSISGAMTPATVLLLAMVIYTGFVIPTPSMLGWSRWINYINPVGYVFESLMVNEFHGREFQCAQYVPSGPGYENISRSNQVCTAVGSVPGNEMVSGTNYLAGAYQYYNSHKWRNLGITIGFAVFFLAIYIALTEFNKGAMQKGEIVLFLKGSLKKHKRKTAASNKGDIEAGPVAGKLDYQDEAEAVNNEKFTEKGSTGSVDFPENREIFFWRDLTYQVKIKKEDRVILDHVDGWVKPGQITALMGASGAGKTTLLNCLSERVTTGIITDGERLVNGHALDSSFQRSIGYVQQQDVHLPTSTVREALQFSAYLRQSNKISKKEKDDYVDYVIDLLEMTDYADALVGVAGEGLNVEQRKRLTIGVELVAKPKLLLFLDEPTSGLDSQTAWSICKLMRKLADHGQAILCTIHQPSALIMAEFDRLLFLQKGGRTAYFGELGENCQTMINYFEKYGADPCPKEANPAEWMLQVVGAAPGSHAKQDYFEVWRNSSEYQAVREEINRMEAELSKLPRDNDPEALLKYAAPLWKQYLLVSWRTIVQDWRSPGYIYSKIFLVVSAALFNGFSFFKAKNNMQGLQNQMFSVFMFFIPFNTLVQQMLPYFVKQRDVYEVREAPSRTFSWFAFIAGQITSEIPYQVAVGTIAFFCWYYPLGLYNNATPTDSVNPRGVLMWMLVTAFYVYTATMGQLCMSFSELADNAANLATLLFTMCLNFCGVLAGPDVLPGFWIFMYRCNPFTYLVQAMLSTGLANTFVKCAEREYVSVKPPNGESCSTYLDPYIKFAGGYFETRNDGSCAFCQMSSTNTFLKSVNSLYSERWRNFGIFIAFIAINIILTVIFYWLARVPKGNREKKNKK
# Interleukin-1 receptor-associated kinase 4, sequence (Q9NWZ3 whole entry): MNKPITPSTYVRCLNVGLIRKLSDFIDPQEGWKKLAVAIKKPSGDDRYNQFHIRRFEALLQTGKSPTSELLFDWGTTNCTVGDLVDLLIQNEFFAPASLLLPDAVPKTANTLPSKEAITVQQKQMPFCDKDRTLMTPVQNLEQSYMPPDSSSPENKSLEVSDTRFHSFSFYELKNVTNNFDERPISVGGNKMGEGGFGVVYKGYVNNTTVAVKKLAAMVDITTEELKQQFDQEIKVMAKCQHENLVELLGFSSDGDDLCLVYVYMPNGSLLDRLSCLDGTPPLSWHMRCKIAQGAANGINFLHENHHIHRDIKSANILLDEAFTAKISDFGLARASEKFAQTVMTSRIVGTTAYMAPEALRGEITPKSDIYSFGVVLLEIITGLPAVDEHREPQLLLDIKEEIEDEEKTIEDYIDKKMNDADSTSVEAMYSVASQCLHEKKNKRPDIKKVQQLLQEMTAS
# cAMP-dependent protein kinase catalytic subunit PRKX, sequence (P51817 whole entry): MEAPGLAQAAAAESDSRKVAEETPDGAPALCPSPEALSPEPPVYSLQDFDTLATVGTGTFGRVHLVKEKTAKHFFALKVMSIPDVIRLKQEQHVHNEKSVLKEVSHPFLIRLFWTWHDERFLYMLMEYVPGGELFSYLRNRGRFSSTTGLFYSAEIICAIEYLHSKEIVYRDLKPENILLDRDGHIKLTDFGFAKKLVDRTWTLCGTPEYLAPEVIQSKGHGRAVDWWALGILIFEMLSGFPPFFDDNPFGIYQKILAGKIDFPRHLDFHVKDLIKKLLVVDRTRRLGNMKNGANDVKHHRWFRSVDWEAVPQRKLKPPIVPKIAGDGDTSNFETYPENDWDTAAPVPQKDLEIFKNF
# Serine/threonine-protein kinase TBK1, sequence (Q9UHD2 whole entry): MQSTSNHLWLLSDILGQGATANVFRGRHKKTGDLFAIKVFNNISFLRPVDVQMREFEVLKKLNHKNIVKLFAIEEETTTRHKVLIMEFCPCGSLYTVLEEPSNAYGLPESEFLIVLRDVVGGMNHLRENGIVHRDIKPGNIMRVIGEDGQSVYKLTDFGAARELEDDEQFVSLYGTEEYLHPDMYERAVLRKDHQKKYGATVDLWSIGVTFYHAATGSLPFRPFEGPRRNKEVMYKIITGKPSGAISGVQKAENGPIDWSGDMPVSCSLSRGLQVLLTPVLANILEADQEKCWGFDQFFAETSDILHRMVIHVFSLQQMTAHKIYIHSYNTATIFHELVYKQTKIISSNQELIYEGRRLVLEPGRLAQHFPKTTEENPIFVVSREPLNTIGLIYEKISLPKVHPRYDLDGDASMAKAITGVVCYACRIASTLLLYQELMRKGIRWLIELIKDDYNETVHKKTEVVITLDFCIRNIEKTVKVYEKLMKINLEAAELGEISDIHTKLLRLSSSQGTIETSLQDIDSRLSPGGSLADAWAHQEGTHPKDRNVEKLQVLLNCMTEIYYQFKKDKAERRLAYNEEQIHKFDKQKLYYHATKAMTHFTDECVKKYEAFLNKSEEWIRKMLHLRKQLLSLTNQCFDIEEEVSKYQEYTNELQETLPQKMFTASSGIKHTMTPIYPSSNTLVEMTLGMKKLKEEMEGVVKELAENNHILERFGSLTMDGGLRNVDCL
# Leukocyte tyrosine kinase receptor, sequence (P29376 whole entry): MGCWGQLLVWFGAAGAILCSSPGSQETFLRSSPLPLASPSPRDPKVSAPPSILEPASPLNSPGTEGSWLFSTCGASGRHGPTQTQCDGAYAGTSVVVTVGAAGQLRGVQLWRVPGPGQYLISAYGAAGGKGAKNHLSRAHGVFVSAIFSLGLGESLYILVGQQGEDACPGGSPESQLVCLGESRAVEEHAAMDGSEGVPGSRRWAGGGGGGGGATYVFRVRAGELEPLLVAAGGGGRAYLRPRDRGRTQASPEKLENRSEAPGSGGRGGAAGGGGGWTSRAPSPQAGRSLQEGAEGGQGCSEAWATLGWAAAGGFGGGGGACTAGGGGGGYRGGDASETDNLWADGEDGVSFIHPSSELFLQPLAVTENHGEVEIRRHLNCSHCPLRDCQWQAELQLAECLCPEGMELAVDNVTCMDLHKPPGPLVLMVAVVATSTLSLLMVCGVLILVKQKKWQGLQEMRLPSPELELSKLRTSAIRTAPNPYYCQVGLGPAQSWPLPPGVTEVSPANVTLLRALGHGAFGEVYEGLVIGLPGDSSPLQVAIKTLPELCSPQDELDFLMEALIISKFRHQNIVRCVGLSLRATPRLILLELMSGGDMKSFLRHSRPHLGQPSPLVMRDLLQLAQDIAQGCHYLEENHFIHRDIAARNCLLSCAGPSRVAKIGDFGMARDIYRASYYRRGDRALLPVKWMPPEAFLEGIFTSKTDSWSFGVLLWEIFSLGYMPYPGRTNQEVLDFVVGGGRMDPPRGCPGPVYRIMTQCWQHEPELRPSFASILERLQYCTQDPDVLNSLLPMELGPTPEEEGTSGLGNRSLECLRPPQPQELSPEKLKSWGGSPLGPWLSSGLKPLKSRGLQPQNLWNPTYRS
smiles,measurement,setting,value
O=C1C(Cc2ccccc2)Nc2ncnc(N3CCN(c4ccccc4)CC3)c2N1Cc1ccc(Br)cc1 (configuration not stated),IC50,Beta-galactosidase,2.54 µM (active)
same,EC50,[1],21.2 µM (active)
same,EC50,[2],10.8 µM (active)
same,EC50,[3],11.1 µM (active)
NC(=O)c1cccc2[nH]c(-c3cccc(NCCN4CCCC4)n3)nc12,Ki,[4],> 10 µM (inactive)
same,Ki,[5],1.26 µM (active)
same,Ki,Aurora kinase B,1.26 µM (active)
same,Ki,[6],2 µM (active)
same,Ki,[7],> 10 µM (inactive)
same,Ki,[8],1 µM (active)
same,Ki,[9],2.51 µM (active)
same,Ki,[10],> 10 µM (inactive)
same,Ki,[11],> 10 µM (inactive)
same,Ki,LIM domain kinase 1,> 10 µM (inactive)
same,Ki,[12],> 10 µM (inactive)
same,Ki,[13],5.01 µM (active)
COc1ccc(/C=C2\CN(Cc3ccccc3)C/C(=C\c3ccc(OC)c(O)c3)C2=O)cc1O,AC50,[14],4.93 µM (active)
same,AC50,[15],21.6 µM (active)
same,AC50,Paired box protein Pax-8,4.63 µM (active)
same,EC50,[16],2.65 µM (active)
same,AC50,[17],2.98 µM (active)
same,EC50,BJ [18],4.4 µM (active)
same,EC50,BJ [19],0.435 µM (active)
same,AC50,[20],4.34 µM (active)
same,AC50,[21],14.2 µM (active)
same,AC50,[22],3.79 µM (active)
same,CC50,Vero [23],2.75 µM (active)
same,EC50,[24],8.35 µM (active)
same,AC50,[25],14.3 µM (active)
same,AC50,[26],8.94 µM (active)
same,AC50,[27],4.16 µM (active)
same,EC50,[28],8.62 µM (inconclusive)
same,AC50,[29],5.24 µM (active)
same,AC50,[30],9.32 µM (active)
same,IC50,Vero [31],23.2 µM (active)
same,AC50,[32],12.5 µM (active)
same,IC50,[33],5.53 µM (active)
same,EC50,[34],9.23 µM (inconclusive)
same,AC50,[35],7.31 µM (active)
same,AC50,INS1,4.23 µM (active)
same,EC50,[36],> 120 µM (not active)
same,EC50,BJ [37],2.04 µM (active)
same,EC50,BJ [38],2.23 µM (active)
Cc1cc(=O)[nH]c2[nH]n(-c3ccccc3)c(=O)c12,Ki,[39],20 µM (active)
same,Ki,[40],50.1 µM (active)
same,Ki,[41],20 µM (active)
same,Ki,[42],50.1 µM (active)
same,Ki,[43],39.8 µM (active)
same,Ki,[44],12.6 µM (active)
same,Ki,Aurora kinase A,50.1 µM (active)
same,Ki,[45],10 µM (active)
same,Ki,[46],50.1 µM (active)
same,Ki,Activin receptor type-1,79.4 µM (active)
same,Ki,[47],100 µM (active)
same,Ki,[48],63.1 µM (active)
same,Ki,[49],50.1 µM (active)
same,Ki,[50],50.1 µM (active)
same,Ki,[51],39.8 µM (active)
same,Ki,[52],63.1 µM (active)
same,Ki,[53],39.8 µM (active)
same,Ki,LIM domain kinase 1,12.6 µM (active)
same,Ki,[54],79.4 µM (active)
